Test results reported in PMC12811996, “Exploration and Characterization of the Antimalarial Activity of Pyrimidine‐2,4‐Diamines for which Resistance is Mediated by the ABCI3 Transporter” (Chemmedchem, 2025).
Values after ≈ are worked out from the molar mass of the structure shown. Where two headings read alike, the source gives them in different places.

Assays:
physchem [1] = type: physicochemical; settings: kinetic in PBS, pH 7.4
Method: (§1) The aqueous solubility and in vitro metabolic stability of selected analogs were assessed to determine if they had favorable parameters (Table 9 ).These analogs were selected based on their potency and the modifications that were incorporated, which led to compounds 55 and 56. […] The high lipophilicity of analogs 1, 11, and 16 was not favorable for metabolic stability.
(§2) This was performed as previously described.^[ [14] ^, [16] ^]

in vitro = in vitro ADME; settings: for microsomal CLint: human, microsomes, human liver microsomes; for hepatocyte CLint: rat hepatocytes
Method: as §1, §2

physchem [2] = type: physicochemical; settings: shake-flask method; for logD: read-out: eLogD
Method: as §2

Albumax = Albumax (Bos taurus, UniProt P02769); assay: in vitro; type: in vitro ADME; settings: for fraction unbound: bovine, isolated protein, read-out: Albumax binding % bound (converted)
[3] = test system: P. falciparum 3D7 parasites; assay: P. falciparum 3D7 asexual stage parasite LDH assay, 72 h; type: cell-based, Plasmodium falciparum; settings: for fold reduction in antiplasmodial activity compared to W482 (1): ratio of 3D7 EC50 values; for EC50: Plasmodium falciparum, 3D7, 72 h, P. falciparum 3D7, LDH activity, 72 h exposure, means and SDs, 3 or more experiments, read-out: Pf parasite EC50 (SD)
Method: To establish the SAR, the antiparasitic activity of the analogs was determined using an assay that measures the lactate dehydrogenase (LDH) activity of asexual P. falciparum 3D7 parasites after 72 h of compound treatment. Mammalian cytotoxicity was monitored using an assay that measures the growth of HepG2 cells using Cell Titer‐Glo after 48 h of compound treatment.
This was performed as previously described, whereby lactate dehydrogenase (LDH) was used as a metabolic marker for parasite growth after a 72‐h incubation period.^[ [14] ^, [30] ^]

PfABCI3-HAreg parasites = assay: Parasite proliferation assay with PfABCI3-HAreg parasites (SYBR Safe, 72 h); type: cell-based, Plasmodium falciparum; settings: mean ± SEM, n = 4; for IC50: Plasmodium falciparum, 72 h
Method: Glucosamine (GlcN) (5 mM) was used to reduce the level of pfabci3‐ha. Chloroquine and MMV020746 were used as negative and positive controls, respectively.
Figure 4 Sensitivity of PfABCI3‐HAreg parasites to growth inhibition by chloroquine (a), MMV020746 (b), and W482 (1) (c). Data for parasites in which pfabci3‐ha mRNA was reduced (+ GlcN) are shown in red. GlcN (5 mM) was added to the parasites 48 h prior to the assay and maintained throughout the 72 h assay. The data for parasites expressing a normal level of PfABCI3‐HA (‐GlcN) are shown in black. The data in all panels are from four independent experiments performed on different days. […] Parasites that were treated with or without GlcN (5 mM) were tested concurrently in each assay. TEXT PRINTED IN THE PICTURE: chloroquine: IC50 ± SEM (nM) - GlcN: 12.6 ± 1.1; IC50 ± SEM (nM) + GlcN: 11.9 ± 1.5 | MMV020746: IC50 ± SEM (nM) - GlcN: 104 ± 13; IC50 ± SEM (nM) + GlcN: 32.9 ± 3.9 | W482 (1): IC50 ± SEM (nM) - GlcN: 312 ± 28; IC50 ± SEM (nM) + GlcN: 153 ± 12
Parasite proliferation assays were performed with PfABCI3‐HAreg parasites^[ [19] ^] according to a previously described method, with the fluorescent nucleic acid intercalating dye SYBR Safe used to measure parasite viability.^[ [32] ^, [33] ^] The assays were commenced with cultures consisting of predominantly ring‐stage parasites with a starting hematocrit of 1% and parasitemia of 1%. […] It was shown previously that there is a reduction in pfabci3‐ha mRNA in PfABCI3‐HAreg exposed to 5 mM GlcN and a decrease in parasite viability over time.^[ [19] ^] The level of knockdown of the protein is not known.

[4] = read-out: Aqueous solubility pH 7.4
[5] = aqueous buffer, kinetic from dmso stock

Sequence of Albumax (P02769 25-607): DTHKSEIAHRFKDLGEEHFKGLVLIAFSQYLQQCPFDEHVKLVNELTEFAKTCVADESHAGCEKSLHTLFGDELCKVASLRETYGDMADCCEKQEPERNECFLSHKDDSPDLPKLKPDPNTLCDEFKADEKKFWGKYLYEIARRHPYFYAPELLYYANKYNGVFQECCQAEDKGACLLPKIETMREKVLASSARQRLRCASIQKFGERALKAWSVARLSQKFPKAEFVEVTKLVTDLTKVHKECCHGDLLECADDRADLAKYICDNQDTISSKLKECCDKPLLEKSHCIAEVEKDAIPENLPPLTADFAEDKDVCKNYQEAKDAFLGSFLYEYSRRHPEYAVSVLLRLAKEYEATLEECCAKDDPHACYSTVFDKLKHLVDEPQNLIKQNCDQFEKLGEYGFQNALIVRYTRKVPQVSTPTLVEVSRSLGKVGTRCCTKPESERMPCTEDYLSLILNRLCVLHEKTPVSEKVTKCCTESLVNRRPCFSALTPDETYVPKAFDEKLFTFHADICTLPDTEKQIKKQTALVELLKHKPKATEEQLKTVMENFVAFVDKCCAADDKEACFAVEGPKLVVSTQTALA

| Compound | EC50 [3] [nM] | further results |
| --- | --- | --- |
| 3‐Cyclohexyl‐N‐(4‐((4‐(dimethylamino)quinazolin‐2‐yl)amino)phenyl)propenamide [Compound 16] | – | solubility (physchem [1]; [4]): 2.5 µM; Human liver microsomes CLint (in vitro): 166 µL/min/mg; Rat hepatocytes CLint (in vitro): >92 µL/min/10^6 cells; eLogD (physchem [2]): 4.6–5.0; Albumax binding % bound (Albumax): 96.6% |
| 3‐Cyclohexyl‐N‐(4‐((4‐methyl‐6‐(4‐methylpiperazin‐1‐yl)pyrimidin‐2‐yl)amino)phenyl)propenamide [Compound 11] | – | solubility (physchem [1]; [4]): 2.6 µM; Rat hepatocytes CLint (in vitro): >92 µL/min/10^6 cells; eLogD (physchem [2]): 4.6–5.0; Albumax binding % bound (Albumax): 99.9% |
| 3‐Cyclohexyl‐N‐(4‐((4‐methyl‐6‐morpholinopyrimidin‐2‐yl)amino)phenyl)propenamide [Compound 9] | – | fold reduction in antiplasmodial activity compared to W482 (1) [3]: 4 fold |
| 3‐Cyclohexyl‐N‐(6‐((4‐(dimethylamino)‐6‐methylpyrimidin‐2‐yl)amino)pyridin‐3‐yl)propenamide [Compound 25] | – | fold reduction in antiplasmodial activity compared to W482 (1) [3]: 8 fold |
| Cc1cc(N(C)Cc2ccccc2)nc(Nc2ccc(NC(=O)CCC3CCCCC3)cc2)n1 [Compound 6, N‐(4‐((4‐(Benzyl(methyl)amino)‐6‐methylpyrimidin‐2‐yl)amino)phenyl)‐3‐cyclohexylpropanamide] | 600 | – |
| Cc1cc(Nc2ccc(NC(=O)CCC3CCCCC3)cc2)nc(N(C)C)c1 [Compound 19, 3‐Cyclohexyl‐N‐(4‐((6‐(dimethylamino)‐4‐methylpyridin‐2‐yl)amino)phenyl)propanamide] | 610 | – |
| Cc1cc(N(C)C)cc(Nc2ccc(NC(=O)CCC3CCCCC3)cc2)n1 [Compound 20, 3‐Cyclohexyl‐N‐(4‐((4‐(dimethylamino)‐6‐methylpyridin‐2‐yl)amino)phenyl)propanamide] | 880 | – |
| CN(C)c1nc(Nc2ccc(NC(=O)CCC3CCCCC3)cc2)cc2ccccc12 [Compound 21, 3‐Cyclohexyl‐N‐(4‐((1‐(dimethylamino)isoquinolin‐3‐yl)amino)phenyl)propanamide] | > 10000 | – |
| Cc1cc(N(C)C)nc(Nc2ccc(NC(=O)c3cccs3)cc2)n1 [Compound 27] | 1440 | – |
| Cc1cc(N(C)C)nc(Nc2ccc(NC(=O)c3ccco3)cc2)n1 [Compound 28] | 3900 | – |
| Cc1cc(N(C)C)nc(Nc2ccc(NC(=O)c3ccc4ccccc4c3)cc2)n1 [Compound 29] | 360 | – |
| Cc1cc(N(C)C)nc(Nc2ccc(NC(=O)C(C)C)cc2)n1 [Compound 30] | 3760 | – |
| Cc1cc(N(C)C)nc(Nc2ccc(NC(=O)C(C)(C)C)cc2)n1 [Compound 31] | 3360 | – |
| Cc1cc(N(C)C)nc(Nc2ccc(NC(=O)CC(C)C)cc2)n1 [Compound 32] | 1630 | – |
| Cc1cc(N(C)C)nc(Nc2ccc(NC(=O)C3CCCCC3)cc2)n1 [Compound 33] | 930 | – |
| Cc1cc(N(C)C)nc(Nc2ccc(NC(=O)CCC3CCCC3)cc2)n1 [Compound 34] | 1000 | fold reduction in antiplasmodial activity compared to W482 (1) [3]: 2 fold |
| Cc1cc(N(C)C)nc(Nc2ccc(NC(=O)c3ccccc3Cl)cc2)n1 [Compound 35] | 2120 | – |
| Cc1cc(N(C)C)nc(Nc2ccc(NC(=O)c3ccccc3Br)cc2)n1 [Compound 36] | 1850 | – |
| Cc1cc(N(C)C)nc(Nc2ccc(NC(=O)c3ccccc3C(F)(F)F)cc2)n1 [Compound 37] | 850 | fold reduction in antiplasmodial activity compared to W482 (1) [3]: 2 fold |
| Cc1cc(N(C)C)nc(Nc2ccc(NC(=O)c3cccc(F)c3)cc2)n1 [Compound 38] | 780 | fold reduction in antiplasmodial activity compared to W482 (1) [3]: 2 fold |

| Compound | EC50 [3] [nM] | further results |
| --- | --- | --- |
| Cc1cc(N(C)C)nc(Nc2ccc(NC(=O)c3cccc(Br)c3)cc2)n1 [Compound 39] | 450 | – |
| Cc1cccc(C(=O)Nc2ccc(Nc3nc(C)cc(N(C)C)n3)cc2)c1 [Compound 40] | 1080 | fold reduction in antiplasmodial activity compared to W482 (1) [3]: 2 fold |
| Cc1cc(C)cc(C(=O)Nc2ccc(Nc3nc(C)cc(N(C)C)n3)cc2)c1 [Compound 41] | 590 | – |
| Cc1cc(N(C)C)nc(Nc2ccc(NC(=O)c3ccc(C)c(C)c3)cc2)n1 [Compound 42] | 660 | – |
| COc1cc(OC)cc(C(=O)Nc2ccc(Nc3nc(C)cc(N(C)C)n3)cc2)c1 [Compound 43] | 640 | – |
| COc1ccc(Cl)cc1C(=O)Nc1ccc(Nc2nc(C)cc(N(C)C)n2)cc1 [Compound 44] | 490 | – |
| Cc1cc(N(C)C)nc(Nc2ccc(NC(=O)Nc3ccccc3F)cc2)n1 [Compound 45] | 3420 | – |
| Cc1cc(N(C)C)nc(Nc2ccc(NC(=O)Nc3ccccc3Cl)cc2)n1 [Compound 46] | > 10000 | – |
| Cc1cc(N(C)C)nc(Nc2ccc(NC(=O)Nc3ccccc3C)cc2)n1 [Compound 47] | 410 | – |
| COc1ccccc1NC(=O)Nc1ccc(Nc2nc(C)cc(N(C)C)n2)cc1 [Compound 48] | 380 | – |
| Cc1cc(N(C)C)nc(Nc2ccc(NC(=O)Nc3cccc(Cl)c3)cc2)n1 [Compound 49] | 240 | – |
| Cc1cccc(NC(=O)Nc2ccc(Nc3nc(C)cc(N(C)C)n3)cc2)c1 [Compound 50] | 240 | – |
| Cc1cc(N(C)C)nc(Nc2ccc(NC(=O)Nc3ccc(F)cc3)cc2)n1 [Compound 51] | 300 | solubility (physchem [1]; [5]): 3.7 µM (≈ 1.41 µg/mL); microsomal CLint (in vitro): 26 µL/min/mg; hepatocyte CLint (in vitro): 32 µL/min/1e6 cells; logD (physchem [2]): 3; fraction unbound (Albumax): 0.016 |
| Cc1cc(N(C)C)nc(Nc2ccc(NC(=O)Nc3ccc(Cl)cc3)cc2)n1 [Compound 52] | 340 | – |
| Cc1ccc(NC(=O)Nc2ccc(Nc3nc(C)cc(N(C)C)n3)cc2)cc1 [Compound 53] | 440 | – |
| COc1ccc(NC(=O)Nc2ccc(Nc3nc(C)cc(N(C)C)n3)cc2)cc1 [Compound 54] | 400 | – |
| O=C(CCC1CCCCC1)Nc1ccc(Nc2nc(N3CCNCC3)c3ccccc3n2)cc1 [Compound 55, 3‐Cyclohexyl‐N‐(4‐((4‐(piperazin‐1‐yl)quinazolin‐2‐yl)amino)phenyl)propanamide] | 230 | solubility (physchem [1]; [5]): 2.5 µM (≈ 1.15 µg/mL); Human liver microsomes CLint (in vitro): 117 µL/min/mg; microsomal CLint (in vitro): > 117 µL/min/mg; hepatocyte CLint (in vitro): 27 µL/min/1e6 cells; logD (physchem [2]): 3.2; fraction unbound (Albumax): 0.002 |
| O=C(Nc1ccc(F)cc1)Nc1ccc(Nc2nc(N3CCNCC3)c3ccccc3n2)cc1 [Compound 56, 1‐(4‐Fluorophenyl)‐3‐(4‐((4‐(piperazin‐1‐yl)quinazolin‐2‐yl)amino)phenyl)urea] | 180 | solubility (physchem [1]; [5]): 9.6 µM (≈ 4.39 µg/mL); hepatocyte CLint (in vitro): 21 µL/min/1e6 cells; logD (physchem [2]): 2.2; fraction unbound (Albumax): 0.001 |
| CCN(CC)CCCC(C)Nc1ccnc2cc(Cl)ccc12 (stereo not shown) [chloroquine, reference compound] | – | IC50 (PfABCI3-HAreg parasites; PfABCI3-HAreg parasites expressing normal level of PfABCI3-HA (-GlcN)): 12.6 ± 1.1 nM; IC50 (PfABCI3-HAreg parasites; PfABCI3-HAreg parasites with reduced pfabci3-ha mRNA (+ 5 mM GlcN)): 11.9 ± 1.5 nM; fold lower IC50 for +GlcN parasites than -GlcN parasites (PfABCI3-HAreg parasites): equally potent |
